Results published in PMC8632988, “Inhibition of SYK and cSrc kinases can protect bone and cartilage in preclinical models of osteoarthritis and rheumatoid arthritis” (Scientific Reports, 2021).
“And” between values parts separate entries of the source, which are not always exact repeats. Equal values may be shown once.

How the values were obtained:
Assay in all cases: Kinase selectivity profile assay
Assay type in all cases: biochemical
[1] = target: T1, ARAF (Homo sapiens, UniProt P10398); settings: 500 nM; relative to DMSO; read-out: Residual enzymatic activity
T1 construct: purchased Reaction Biology Corporation
Outline: (§1)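 Radiometric kinase assay run by a standard protocol. Unbound phosphate was removed by washing filters in phosphoric acid, and product radioactivity gave percent remaining kinase activity versus DMSO vehicle reactions. Run in duplicate.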

[2] = target: T2, Aurora B (Homo sapiens, UniProt Q96GD4); settings: 500 nM; relative to DMSO; read-out: Residual enzymatic activity
T2 construct: purchased Reaction Biology Corporation
Outline: as §1

[3] = target: T3, BMPR2 (Homo sapiens, UniProt Q13873); settings: 500 nM; relative to DMSO; read-out: Residual enzymatic activity
T3 construct: purchased Reaction Biology Corporation
Outline: as §1

[4] = target: T4, BRSK2 (Homo sapiens, UniProt Q8IWQ3); settings: 500 nM; relative to DMSO; read-out: Residual enzymatic activity
T4 construct: purchased Reaction Biology Corporation
Outline: as §1

[5] = target: T5, CAMK1b (Homo sapiens, UniProt Q6P2M8); settings: 500 nM; relative to DMSO; read-out: Residual enzymatic activity
T5 construct: purchased Reaction Biology Corporation
Outline: as §1

[6] = target: T6, CDK1/cyclin B (Homo sapiens, UniProt P06493); settings: 500 nM; relative to DMSO; read-out: Residual enzymatic activity
T6 construct: purchased Reaction Biology Corporation
Outline: as §1

[7] = target: T7, CDK2/Cyclin A1 (Homo sapiens, UniProt P24941); settings: 500 nM; relative to DMSO; read-out: Residual enzymatic activity
T7 construct: purchased Reaction Biology Corporation
Outline: as §1

[8] = target: T8, CDK7/cyclin H (Homo sapiens, UniProt P50613); settings: 500 nM; relative to DMSO; read-out: Residual enzymatic activity
T8 construct: purchased Reaction Biology Corporation
Outline: as §1

[9] = target: T9, CK1g2 (Homo sapiens, UniProt P78368); settings: 500 nM; relative to DMSO; read-out: Residual enzymatic activity
T9 construct: purchased Reaction Biology Corporation
Outline: as §1

[10] = target: T10, CK1g3 (Homo sapiens, UniProt Q9Y6M4); settings: 500 nM; relative to DMSO; read-out: Residual enzymatic activity
T10 construct: purchased Reaction Biology Corporation
Outline: as §1

[11] = target: T11, CLK1 (Homo sapiens, UniProt P49759); settings: 500 nM; relative to DMSO; read-out: Residual enzymatic activity
T11 construct: purchased Reaction Biology Corporation
Outline: as §1

[12] = target: T12, CTK/MATK (Homo sapiens, UniProt P42679); settings: 500 nM; relative to DMSO; read-out: Residual enzymatic activity
T12 construct: purchased Reaction Biology Corporation
Outline: as §1

[13] = target: T13, DAPK2 (Homo sapiens, UniProt Q9UIK4); settings: 500 nM; relative to DMSO; read-out: Residual enzymatic activity
T13 construct: purchased Reaction Biology Corporation
Outline: as §1

[14] = target: T14, DDR1 (Homo sapiens, UniProt Q08345); settings: for remaining activity at 0.5 µM: 500 nM, relative to DMSO, read-out: Residual enzymatic activity
T14 construct: purchased Reaction Biology Corporation (assay service)
Outline: as §1

[15] = target: T15, DYRK1/DYRK1A (Homo sapiens, UniProt Q13627); settings: 500 nM; relative to DMSO; read-out: Residual enzymatic activity
T15 construct: purchased Reaction Biology Corporation
Outline: as §1

[16] = target: T16, FLT1/VEGFR1 (Homo sapiens, UniProt P17948); settings: 500 nM, relative to DMSO; for remaining activity at 0.5 µM: read-out: Residual enzymatic activity
T16 construct: purchased Reaction Biology Corporation
Outline: as §1

[17] = target: T17, FMS (Homo sapiens, UniProt P07333); settings: 500 nM; relative to DMSO; read-out: Residual enzymatic activity
T17 construct: purchased Reaction Biology Corporation
Outline: as §1

[18] = target: T18, GCK/MAP4K2 (Homo sapiens, UniProt Q12851); settings: 500 nM; relative to DMSO; read-out: Residual enzymatic activity
T18 construct: purchased Reaction Biology Corporation
Outline: as §1

[19] = target: T19, GRK3 (Homo sapiens, UniProt P35626); settings: 500 nM; relative to DMSO; read-out: Residual enzymatic activity
T19 construct: purchased Reaction Biology Corporation
Outline: as §1

[20] = target: T20, GSK3b (Homo sapiens, UniProt P49841); settings: 500 nM; relative to DMSO; read-out: Residual enzymatic activity
T20 construct: purchased Reaction Biology Corporation
Outline: as §1

[21] = target: T21, HIPK3 (Homo sapiens, UniProt Q9H422); settings: 500 nM; relative to DMSO; read-out: Residual enzymatic activity
T21 construct: purchased Reaction Biology Corporation
Outline: as §1

[22] = target: T22, JAK1 (Homo sapiens, UniProt P23458); settings: 500 nM; relative to DMSO; read-out: Residual enzymatic activity
T22 construct: purchased Reaction Biology Corporation
Outline: as §1

[23] = target: T23, MELK (Homo sapiens, UniProt Q14680); settings: 500 nM; relative to DMSO; read-out: Residual enzymatic activity
T23 construct: purchased Reaction Biology Corporation
Outline: as §1

[24] = target: T24, MINK/MINK1 (Homo sapiens, UniProt Q8N4C8); settings: 500 nM; relative to DMSO; read-out: Residual enzymatic activity
T24 construct: purchased Reaction Biology Corporation
Outline: as §1

[25] = target: T25, MNK1 (Homo sapiens, UniProt Q9BUB5); settings: 500 nM; relative to DMSO; read-out: Residual enzymatic activity
T25 construct: purchased Reaction Biology Corporation
Outline: as §1

[26] = target: T26, NEK9 (Homo sapiens, UniProt Q8TD19); settings: 500 nM; relative to DMSO; read-out: Residual enzymatic activity
T26 construct: purchased Reaction Biology Corporation
Outline: as §1

[27] = target: T27, PAK6 (Homo sapiens, UniProt Q9NQU5); settings: 500 nM; relative to DMSO; read-out: Residual enzymatic activity
T27 construct: purchased Reaction Biology Corporation
Outline: as §1

[28] = target: T28, PDGFRa (Homo sapiens, UniProt P16234); settings: for remaining activity at 0.5 µM: 500 nM, relative to DMSO, read-out: Residual enzymatic activity
T28 construct: purchased Reaction Biology Corporation (Malvern, PA, USA)
Outline: as §1

[29] = target: T29, PKCb2 (Homo sapiens, UniProt P05771); settings: 500 nM; relative to DMSO; read-out: Residual enzymatic activity
T29 construct: purchased Reaction Biology Corporation
Outline: as §1

[30] = target: T30, PKD2/PRKD2 (Homo sapiens, UniProt Q9BZL6); settings: 500 nM; relative to DMSO; read-out: Residual enzymatic activity
T30 construct: purchased Reaction Biology Corporation
Outline: as §1

[31] = target: T31, PLK4/SAK (Homo sapiens, UniProt O00444); settings: 500 nM; relative to DMSO; read-out: Residual enzymatic activity
T31 construct: purchased Reaction Biology Corporation
Outline: as §1

[32] = target: T32, RIPK5 (Homo sapiens, UniProt Q6XUX3); settings: 500 nM; relative to DMSO; read-out: Residual enzymatic activity
T32 construct: purchased Reaction Biology Corporation
Outline: as §1

[33] = target: T33, SIK1 (Homo sapiens, UniProt P57059); settings: for remaining activity at 0.5 µM: 500 nM, relative to DMSO, read-out: Residual enzymatic activity
T33 construct: purchased Reaction Biology Corporation (Malvern, PA, USA)
Outline: as §1

[34] = target: T34, SLK/STK2 (Homo sapiens, UniProt Q9H2G2); settings: 500 nM; relative to DMSO; read-out: Residual enzymatic activity
T34 construct: purchased Reaction Biology Corporation
Outline: as §1

[35] = target: T35, STK25/YSK1 (Homo sapiens, UniProt O00506); settings: 500 nM; relative to DMSO; read-out: Residual enzymatic activity
T35 construct: purchased Reaction Biology Corporation
Outline: as §1

[36] = target: T36, STK38L/NDR2 (Homo sapiens, UniProt Q9Y2H1); settings: 500 nM; relative to DMSO; read-out: Residual enzymatic activity
T36 construct: purchased Reaction Biology Corporation
Outline: as §1

[37] = target: T37, TRKB (Homo sapiens, UniProt Q16620); settings: 500 nM; relative to DMSO; read-out: Residual enzymatic activity
T37 construct: purchased Reaction Biology Corporation
Outline: as §1

[38] = target: T38, ULK2 (Homo sapiens, UniProt Q8IYT8); settings: 500 nM; relative to DMSO; read-out: Residual enzymatic activity
T38 construct: purchased Reaction Biology Corporation
Outline: as §1

[39] = target: T39, VRK1 (Homo sapiens, UniProt Q99986); settings: 500 nM; relative to DMSO; read-out: Residual enzymatic activity
T39 construct: purchased Reaction Biology Corporation
Outline: as §1

[40] = 10-dose mode, threefold serial dilution from 10 μM

T16 sequence (P17948 27-1338): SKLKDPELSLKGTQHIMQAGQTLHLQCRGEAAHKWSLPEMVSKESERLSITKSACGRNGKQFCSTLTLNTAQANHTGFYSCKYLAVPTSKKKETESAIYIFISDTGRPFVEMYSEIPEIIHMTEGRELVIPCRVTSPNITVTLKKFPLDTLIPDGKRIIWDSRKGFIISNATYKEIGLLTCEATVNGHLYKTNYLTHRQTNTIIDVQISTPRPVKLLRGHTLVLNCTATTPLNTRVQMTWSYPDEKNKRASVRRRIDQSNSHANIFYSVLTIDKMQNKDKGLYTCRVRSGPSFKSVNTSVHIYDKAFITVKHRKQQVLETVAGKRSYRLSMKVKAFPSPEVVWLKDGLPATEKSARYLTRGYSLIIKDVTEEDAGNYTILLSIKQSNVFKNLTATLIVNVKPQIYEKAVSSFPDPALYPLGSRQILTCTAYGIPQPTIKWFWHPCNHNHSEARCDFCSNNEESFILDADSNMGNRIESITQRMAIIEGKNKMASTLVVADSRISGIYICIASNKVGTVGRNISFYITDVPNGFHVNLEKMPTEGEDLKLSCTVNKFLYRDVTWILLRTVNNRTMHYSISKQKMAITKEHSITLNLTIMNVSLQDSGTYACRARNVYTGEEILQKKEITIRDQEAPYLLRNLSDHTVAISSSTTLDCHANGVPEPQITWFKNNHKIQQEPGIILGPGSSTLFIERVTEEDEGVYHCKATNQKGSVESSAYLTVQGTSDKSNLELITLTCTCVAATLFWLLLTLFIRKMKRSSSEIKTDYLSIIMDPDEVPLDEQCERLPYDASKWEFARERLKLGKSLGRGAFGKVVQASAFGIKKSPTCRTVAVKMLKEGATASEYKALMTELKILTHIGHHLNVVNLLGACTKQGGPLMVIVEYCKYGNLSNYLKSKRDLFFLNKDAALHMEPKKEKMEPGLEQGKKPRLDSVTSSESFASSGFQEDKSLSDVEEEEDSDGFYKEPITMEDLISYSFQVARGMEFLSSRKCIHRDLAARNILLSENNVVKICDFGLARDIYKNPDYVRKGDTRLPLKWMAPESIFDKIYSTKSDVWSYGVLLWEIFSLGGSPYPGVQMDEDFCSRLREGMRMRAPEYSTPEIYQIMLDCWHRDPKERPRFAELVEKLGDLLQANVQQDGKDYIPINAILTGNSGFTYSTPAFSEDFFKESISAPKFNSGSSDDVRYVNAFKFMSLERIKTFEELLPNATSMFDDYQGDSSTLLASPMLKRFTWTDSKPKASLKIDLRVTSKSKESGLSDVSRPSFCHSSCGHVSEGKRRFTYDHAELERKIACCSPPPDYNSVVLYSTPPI
T14 sequence (Q08345 19-913): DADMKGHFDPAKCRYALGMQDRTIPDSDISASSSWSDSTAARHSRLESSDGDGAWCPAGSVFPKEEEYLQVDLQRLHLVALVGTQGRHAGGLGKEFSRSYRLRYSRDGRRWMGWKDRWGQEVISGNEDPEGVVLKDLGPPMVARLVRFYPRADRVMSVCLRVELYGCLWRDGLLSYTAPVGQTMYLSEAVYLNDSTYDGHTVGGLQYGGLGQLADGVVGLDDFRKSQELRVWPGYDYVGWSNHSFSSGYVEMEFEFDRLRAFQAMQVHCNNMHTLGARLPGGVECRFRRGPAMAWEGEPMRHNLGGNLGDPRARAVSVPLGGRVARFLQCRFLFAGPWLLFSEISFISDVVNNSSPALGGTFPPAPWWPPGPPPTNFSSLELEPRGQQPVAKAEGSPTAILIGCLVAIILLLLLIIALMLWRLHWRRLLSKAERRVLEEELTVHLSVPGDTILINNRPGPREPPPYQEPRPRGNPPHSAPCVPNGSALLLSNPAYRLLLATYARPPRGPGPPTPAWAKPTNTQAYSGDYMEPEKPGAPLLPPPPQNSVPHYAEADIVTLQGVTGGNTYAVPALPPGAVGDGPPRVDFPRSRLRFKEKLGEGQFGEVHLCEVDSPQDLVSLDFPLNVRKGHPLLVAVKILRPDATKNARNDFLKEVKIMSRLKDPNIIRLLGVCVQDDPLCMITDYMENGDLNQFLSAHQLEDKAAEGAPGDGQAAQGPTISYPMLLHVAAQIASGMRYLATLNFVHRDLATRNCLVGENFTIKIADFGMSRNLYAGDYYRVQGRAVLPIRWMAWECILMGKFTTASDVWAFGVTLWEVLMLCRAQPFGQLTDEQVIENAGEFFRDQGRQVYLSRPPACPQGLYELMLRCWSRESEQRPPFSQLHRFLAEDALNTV
T33 sequence (P57059 whole entry): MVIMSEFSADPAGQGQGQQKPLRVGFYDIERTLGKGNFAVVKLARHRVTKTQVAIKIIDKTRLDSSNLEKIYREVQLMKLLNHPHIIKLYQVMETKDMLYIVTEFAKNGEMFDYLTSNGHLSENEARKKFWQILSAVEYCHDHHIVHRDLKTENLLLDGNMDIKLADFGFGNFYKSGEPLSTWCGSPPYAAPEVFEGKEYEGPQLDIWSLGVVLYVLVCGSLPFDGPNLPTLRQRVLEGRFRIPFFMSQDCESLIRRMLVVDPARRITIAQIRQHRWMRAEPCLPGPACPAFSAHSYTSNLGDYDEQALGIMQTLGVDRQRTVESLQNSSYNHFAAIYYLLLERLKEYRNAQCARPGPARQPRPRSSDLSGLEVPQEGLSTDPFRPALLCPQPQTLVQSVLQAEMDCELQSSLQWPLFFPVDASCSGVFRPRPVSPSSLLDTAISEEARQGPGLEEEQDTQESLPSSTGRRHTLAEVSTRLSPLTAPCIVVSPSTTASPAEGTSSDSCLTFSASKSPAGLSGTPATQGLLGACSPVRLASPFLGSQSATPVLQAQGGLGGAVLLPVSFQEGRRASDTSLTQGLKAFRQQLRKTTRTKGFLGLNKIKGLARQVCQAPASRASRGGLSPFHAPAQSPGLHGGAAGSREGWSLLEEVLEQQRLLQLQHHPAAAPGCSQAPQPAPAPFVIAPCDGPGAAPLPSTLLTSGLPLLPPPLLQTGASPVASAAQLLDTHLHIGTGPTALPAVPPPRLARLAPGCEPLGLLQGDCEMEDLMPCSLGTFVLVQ
T28 sequence (P16234 24-1089): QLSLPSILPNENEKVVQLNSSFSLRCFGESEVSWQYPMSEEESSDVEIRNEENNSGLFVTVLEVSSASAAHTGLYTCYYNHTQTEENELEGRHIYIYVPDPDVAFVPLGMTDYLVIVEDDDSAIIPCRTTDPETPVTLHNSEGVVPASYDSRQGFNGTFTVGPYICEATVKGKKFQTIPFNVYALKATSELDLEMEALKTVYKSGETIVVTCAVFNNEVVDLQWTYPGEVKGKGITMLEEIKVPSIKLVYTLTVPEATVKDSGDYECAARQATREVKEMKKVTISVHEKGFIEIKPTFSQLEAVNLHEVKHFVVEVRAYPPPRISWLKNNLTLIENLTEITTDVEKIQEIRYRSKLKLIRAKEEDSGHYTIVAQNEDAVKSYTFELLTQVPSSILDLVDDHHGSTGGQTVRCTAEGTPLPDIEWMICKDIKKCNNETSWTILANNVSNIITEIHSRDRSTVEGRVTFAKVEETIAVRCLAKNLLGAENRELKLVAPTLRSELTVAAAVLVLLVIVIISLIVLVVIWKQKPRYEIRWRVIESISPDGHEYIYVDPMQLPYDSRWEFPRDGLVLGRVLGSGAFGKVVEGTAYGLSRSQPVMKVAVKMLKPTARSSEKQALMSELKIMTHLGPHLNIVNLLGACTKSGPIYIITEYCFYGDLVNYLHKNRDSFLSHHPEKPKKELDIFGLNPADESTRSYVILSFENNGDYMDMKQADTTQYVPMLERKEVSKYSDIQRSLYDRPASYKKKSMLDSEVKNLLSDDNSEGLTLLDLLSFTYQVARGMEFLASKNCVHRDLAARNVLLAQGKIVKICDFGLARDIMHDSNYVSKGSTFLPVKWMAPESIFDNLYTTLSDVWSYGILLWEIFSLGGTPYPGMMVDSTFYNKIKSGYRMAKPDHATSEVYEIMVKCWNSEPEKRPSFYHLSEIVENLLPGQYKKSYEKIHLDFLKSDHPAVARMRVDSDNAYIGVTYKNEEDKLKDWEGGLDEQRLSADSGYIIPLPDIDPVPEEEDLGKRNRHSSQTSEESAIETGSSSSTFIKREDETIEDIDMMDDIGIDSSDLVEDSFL
T12 sequence (P42679 whole entry): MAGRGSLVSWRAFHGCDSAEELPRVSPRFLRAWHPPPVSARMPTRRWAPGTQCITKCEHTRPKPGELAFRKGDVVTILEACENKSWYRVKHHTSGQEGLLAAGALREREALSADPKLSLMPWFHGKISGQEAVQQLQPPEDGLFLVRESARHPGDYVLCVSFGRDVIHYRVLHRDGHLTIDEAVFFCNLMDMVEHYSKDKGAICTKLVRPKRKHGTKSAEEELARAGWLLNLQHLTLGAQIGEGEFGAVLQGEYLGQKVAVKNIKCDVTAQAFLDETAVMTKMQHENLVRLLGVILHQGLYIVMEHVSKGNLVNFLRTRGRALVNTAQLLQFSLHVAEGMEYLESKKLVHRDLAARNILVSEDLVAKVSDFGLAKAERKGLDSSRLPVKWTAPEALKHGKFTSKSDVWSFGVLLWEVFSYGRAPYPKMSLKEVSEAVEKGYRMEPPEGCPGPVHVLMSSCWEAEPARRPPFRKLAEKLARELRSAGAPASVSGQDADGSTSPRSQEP
T5 sequence (Q6P2M8 whole entry): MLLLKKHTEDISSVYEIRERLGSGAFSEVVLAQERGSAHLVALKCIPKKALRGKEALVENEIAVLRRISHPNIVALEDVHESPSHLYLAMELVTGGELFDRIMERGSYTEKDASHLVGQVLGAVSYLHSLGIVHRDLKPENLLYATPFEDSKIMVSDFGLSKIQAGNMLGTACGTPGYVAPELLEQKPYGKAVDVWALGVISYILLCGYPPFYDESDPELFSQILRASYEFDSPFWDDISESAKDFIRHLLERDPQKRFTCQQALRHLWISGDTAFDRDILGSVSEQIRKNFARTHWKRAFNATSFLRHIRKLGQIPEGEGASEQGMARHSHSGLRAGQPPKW

## COc1cc(Nc2ncnc(Nc3cc4c(cn3)NC(=O)C(C)(C)O4)n2)cc(OC)c1OC [MT-SYK-03]
[1]
  remaining activity at 0.5 µM: 59.7%
[2]
  remaining activity at 0.5 µM: 78.6%
[3]
  remaining activity at 0.5 µM: 90%
[4]
  remaining activity at 0.5 µM: 92.5%
[5]
  remaining activity at 0.5 µM: 106%
[6]
  remaining activity at 0.5 µM: 96%
[7]
  remaining activity at 0.5 µM: 90.7%
[8]
  remaining activity at 0.5 µM: 99.6%
[9]
  remaining activity at 0.5 µM: 97.2%
[10]
  remaining activity at 0.5 µM: 72.2%
[11]
  remaining activity at 0.5 µM: 90.4%
[12]
  remaining activity at 0.5 µM: 96.6%
[13]
  remaining activity at 0.5 µM: 98.4%
[14]
  remaining activity at 0.5 µM: 4.7%
[14]; [40]
  IC50: 1.8 nM
[14]; read-out: Inhibition at 500 nM
  inhibition at 0.5 µM: > 90%
[15]
  remaining activity at 0.5 µM: 90.5%
[16]
  Residual enzymatic activity: did not inhibit
  remaining activity at 0.5 µM: 65.4%
[17]
  remaining activity at 0.5 µM: 51.1%
[18]
  remaining activity at 0.5 µM: 100%
[19]
  remaining activity at 0.5 µM: 103%
[20]
  remaining activity at 0.5 µM: 82.4%
[21]
  remaining activity at 0.5 µM: 110%
[22]
  remaining activity at 0.5 µM: 63.4%
[23]
  remaining activity at 0.5 µM: 86.6%
[24]
  remaining activity at 0.5 µM: 92%
[25]
  remaining activity at 0.5 µM: 91.2%
[26]
  remaining activity at 0.5 µM: 55.7%
[27]
  remaining activity at 0.5 µM: 96.5%
[28]
  remaining activity at 0.5 µM: 46.4%
[28]; [40]
  IC50: 35.9 nM
[29]
  remaining activity at 0.5 µM: 87.7%
[30]
  remaining activity at 0.5 µM: 102%
[31]
  remaining activity at 0.5 µM: 77.8%
[32]
  remaining activity at 0.5 µM: 104%
[33]
  remaining activity at 0.5 µM: 10.1%
[33]; [40]
  IC50: 36 nM and 35.9 nM
[34]
  remaining activity at 0.5 µM: 81%
[35]
  remaining activity at 0.5 µM: 105%
[36]
  remaining activity at 0.5 µM: 89.6%
[37]
  remaining activity at 0.5 µM: 92.4%
[38]
  remaining activity at 0.5 µM: 111%
[39]
  remaining activity at 0.5 µM: 102%

## COc1cc(Nc2ncc(F)c(Nc3ccc4c(n3)NC(=O)C(C)(C)O4)n2)cc(OC)c1OC [R406, reference compound]
[1]
  remaining activity at 0.5 µM: 41%
[2]
  remaining activity at 0.5 µM: 40.2%
[3]
  remaining activity at 0.5 µM: 71.1%
[4]
  remaining activity at 0.5 µM: 84.2%
[5]
  remaining activity at 0.5 µM: 108%
[6]
  remaining activity at 0.5 µM: 75.6%
[7]
  remaining activity at 0.5 µM: 59.5%
[8]
  remaining activity at 0.5 µM: 81.7%
[9]
  remaining activity at 0.5 µM: 101%
[10]
  remaining activity at 0.5 µM: 79.6%
[11]
  remaining activity at 0.5 µM: 61.7%
[12]
  remaining activity at 0.5 µM: 120%
[13]
  remaining activity at 0.5 µM: 103%
[14]
  remaining activity at 0.5 µM: 1%
[15]
  remaining activity at 0.5 µM: 53%
[16]
  remaining activity at 0.5 µM: 12.4%
[17]
  remaining activity at 0.5 µM: 17.2%
[18]
  remaining activity at 0.5 µM: 77.5%
[19]
  remaining activity at 0.5 µM: 102%
[20]
  remaining activity at 0.5 µM: 37.9%
[21]
  remaining activity at 0.5 µM: 96.4%
[22]
  remaining activity at 0.5 µM: 0%
[23]
  remaining activity at 0.5 µM: 54.7%
[24]
  remaining activity at 0.5 µM: 87.3%
[25]
  remaining activity at 0.5 µM: 61.5%
[26]
  remaining activity at 0.5 µM: 2.5%
[27]
  remaining activity at 0.5 µM: 81.2%
[28]
  remaining activity at 0.5 µM: 10.5%
[29]
  remaining activity at 0.5 µM: 30.7%
[30]
  remaining activity at 0.5 µM: 75.2%
[31]
  remaining activity at 0.5 µM: 17.2%
[32]
  remaining activity at 0.5 µM: 100%
[33]
  remaining activity at 0.5 µM: 7.2%
[34]
  remaining activity at 0.5 µM: 31.4%
[35]
  remaining activity at 0.5 µM: 90.7%
[36]
  remaining activity at 0.5 µM: 32.1%
[37]
  remaining activity at 0.5 µM: 28%
[38]
  remaining activity at 0.5 µM: 37.9%
[39]
  remaining activity at 0.5 µM: 98.8%
